Source: US7074922B2, “Method for producing the tautomeric form of (1) of 2,4,6-trianilino-p-(carbo-1′-ethylhexyl-1′oxyl)-1, 3, 5-triazine” (BASF Aktiengesellschaft, priority 2002, dated 2006)

Assay: Storage stability of solutions in cosmetic oils (clouding and precipitation)
Type: physicochemical
Conditions: after 2 days
Description: Storage Stability of Solutions of the Tautomeric Form I in Cosmetic Oils
Both solutions were still clear after 2 days.

CCCCC(CC)COC(=O)c1ccc(Nc2nc(Nc3ccc(C(=O)OCC(CC)CCCC)cc3)nc(Nc3ccc(C(=O)OCC(CC)CCCC)cc3)n2)cc1 (centres unmarked) [I, 2,4,6-trianilino-p-(carbo-2′-ethylhexyl-1′-oxy)-1,3,5-triazine]
appearance of solution on storage (solution in C8–C10-coconut fatty acid triglyceride): still clear
appearance of solution on storage (solution in cetylstearyl 2-ethylhexanoate): still clear
